Laboratory results as given in patent USRE34918E, “Azaazulene compounds which are useful as antiallergic and antiinflammatory agents” (Kaken Pharmaceutical Co., Ltd., priority 1988, dated 1995).
In brackets after ≈: the same amount, converted by molar mass. Several values for one entry are separate records, joined by “and”; a condition that tells them apart may be missing. Identical values can stand only once.

How the values were obtained:
[1] = tested on: carrageenin edema in a foot-pad of rat; experiment: Effect on carrageenin edema in a foot-pad of rat; assay type: in vivo, rat (male Wister); conditions: 4 hours after carrageenin; for Inhibition rate against swelling: vs 0.5% CMC group
Procedure: The test was carried out according to the modified method on a method of Winter et al [Proc. Soc. Exp. Biol Med., 111, 544-547 (1962)]. Five male Wister rats weighing 148 to 162 g which were subjected to fasting for 24 hours were used as one group.
The test compound was suspended in 0.5% aqueous solution of CMC, and the suspension was administered orally in a amount of 50 mg/kg. After 60 minutes, 0.1 ml of 1% carrageenin solution in physiological saline was injected subcutaneously into the foot-pad of the left hind foot. Four hours after the injection of carrageenin, the volume of the foot-pad was measured by the apparatus for measurement of foot-pad volume in rat (commercially available from Ugobasile).
Swelling volume was calculated from the difference between a volume of foot-pad before inflaming the foot-pad, i.e. normal volume and that after inflaming it. Effect of a test compound was expressed as inhibition rate against swelling by calculating percentage in comparison with the 0.5% CMC administration group.
Indomethacin (commercially available from Merck Co.) was used as a positive comparative drug.

[2] = tested on: PCA (homologous passive cutaneous anaphylaxis) in rat; experiment: Inhibitory activity against PCA in rat; assay type: in vivo, rat (male Slc: Wistar); conditions: Rattus norvegicus; 5 mg/kg oral, 1 hour before antigen challenge; read-out: Inhibition rate against PCA
Procedure: An anti-dinitrophenylated-ovalbumin (hereinafter referred to as "anti-DNP-OVA") rat antiserum having 800 of PCA titer in homologous passive cutaneous anaphylaxis reaction in rats for 48 hours, was diluted 200 times with physiological saline, and diluted antiserum was injected intradermally into back of groups of 5 male Slc: Wistar rats weighing 130-150 g in a volume of 50 μl/site to be passively sensitized. After 48 hours, 0.6 ml of 1% (w/v) Evans blue solution containing 1.5 mg of antigen DNP-OVA was administered intravenously into the tail. Thirty minutes later, the rats were bled to death and skin of the rats was removed. According to the method of Katayama et al [Microbiol. […] The test compound was suspended in 0.5% (w/v) aqueous solution of carboxymethylcellulose (hereinafter referred to as "CMC"), the suspension was administered orally in a ratio of 5 mg/kg 1 hour before challenging an antigen.
Inhibition rate against PCA was calculated according to the following equation. [formula] M: Amount of leaked pigment in antibody-sensitized site under administration of CMC without the test compound
S: Amount of leaked pigment in antibody-sensitized site under administration of the test compound in CMC
B: Amount of leaked pigment in antibody-nonsensitized site

5-lipoxygenase = target: T1, 5-lipoxygenase (Cavia porcellus, UniProt A0A286X958); experiment: 5-lipoxygenase inhibiting activity in guinea pig; assay type: biochemical; conditions: read-out: Inhibition rate against 5-lipoxygenase activity
T1 construct: 5-lipoxygenase was prepared with polymorphonuclear leukocyte obtained from peritoneal cavity; endogenous in cells; host or cells: guinea pig peritoneal polymorphonuclear leukocytes (casein-elicited)
T1 sequence (A0A286X958 1-674): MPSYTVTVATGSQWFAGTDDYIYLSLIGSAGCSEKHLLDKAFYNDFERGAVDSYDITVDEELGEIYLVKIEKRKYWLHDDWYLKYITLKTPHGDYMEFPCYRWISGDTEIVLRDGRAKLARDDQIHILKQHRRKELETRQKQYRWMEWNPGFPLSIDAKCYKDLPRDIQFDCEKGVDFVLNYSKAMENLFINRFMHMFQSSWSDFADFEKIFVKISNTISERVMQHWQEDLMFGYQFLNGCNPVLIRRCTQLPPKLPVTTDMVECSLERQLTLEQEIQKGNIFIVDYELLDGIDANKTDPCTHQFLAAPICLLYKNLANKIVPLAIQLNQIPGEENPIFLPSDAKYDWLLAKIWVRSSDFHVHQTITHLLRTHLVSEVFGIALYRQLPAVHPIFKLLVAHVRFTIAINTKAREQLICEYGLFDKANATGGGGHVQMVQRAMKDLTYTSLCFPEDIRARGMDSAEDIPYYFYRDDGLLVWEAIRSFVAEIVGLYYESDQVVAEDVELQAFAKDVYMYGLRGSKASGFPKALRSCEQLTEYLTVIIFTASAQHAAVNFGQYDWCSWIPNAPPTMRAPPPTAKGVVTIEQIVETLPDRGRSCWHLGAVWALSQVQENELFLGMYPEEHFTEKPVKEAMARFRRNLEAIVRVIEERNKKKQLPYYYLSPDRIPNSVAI
Procedure: The test was carried out according to the method of Ochi [cf. J. Biol. Chem., 258, 5754-5758 (1983)]. Two % casein solution in saline was injected intraperitoneally into guinea pigs in an amount of 1/10 of body weight. After 16 hours, 5-lipoxygenase was prepared with polymorphonuclear leukocyte obtained from peritoneal cavity. Test compound and 5-lipoxygenase were pre-incubated at 30° C. for 10 minutes, CaCl2 (calcium chloride) and ^14 C-arachidonic acid were added thereto, and the resulting mixture was incubated for 20 minutes. A mixture of ethyl acetate/methanol/0.2M citric acid=30/4/1 (by volume) was added thereto to stop the reaction. After centrifugation, the organic solvent layer was spotted on a plate for thin layer chromatography and developed. Effect of the test compound was determined from the amount of ^14 C-5-hydroxyeicosatetraenoic acid (hereinafter referred to as "5-HETE") formed from ^14 C-arachidonic acid. Radioactivity of 5-HETE position was measured with a liquid scintillation counter.
Inhibition rate against 5-lipoxygenase activity was calculated according to the following equation.
Inhibition rate against 5-lipoxygenase activity [formula] A: Value of radioactivity in the control group B: Value of radioactivity in the test compound group
Each test compound was used in a concentration of 10 μM.

[3] = tested on: smooth musculus trachealis; experiment: Relaxant activity of smooth musculus trachealis in guinea pig; design: species or system guinea pig (male Hartley); conditions: Cavia porcellus; tracheal chain strips, 37° C.; read-out: Concentration for 50% relaxation
Procedure: Male Hartley guinea pigs weighing 350 to 550 g were bleed to death, and immediately the tracheae were extirpated. According to the method of Takagi et al [cf. Chem. Pharm. Bull., 8, 716 (1958)], tracheal chain strips was prepared, and the sample was suspended on Magnus apparatus under addition of load of 0.5 g. The test was carried out at 37° C. of liquid temperature. After position of tonus was examined with histamine (10^-6 g/ml) and isoproterenol (10^-7 g/ml), the test compound dissolved in a mixture of dimethyl sulfoxide and physiological saline was added thereto, and the test compound was investigated with respect to the effect on smooth musculus trachealis. Theophylline was used as a positive comparative drug. The relaxation and the contraction of smooth musculus trachealis were recorded on servocorder (SR 6342: commercially available from Watanabe Instruments Corp.) by connecting Isotonic Transducer (TD-1125: commercially available from Nihon Kohden Kogyo Co., Ltd.) to a balancing box.

[4] = tested on: histamine release from rat mast cell; experiment: Inhibitory activity against histamine release from rat mast cell; assay type: cell-based; conditions: 10 μg/ml, read-out: Inhibitory rate against histamine release
Procedure: An anti-dinitrophenylated-ovalbumin (anti DNP-OVA) rat antiserum having 800 of PCA titer in homologous passive cutaneous anaphylaxis reaction in rats for 48 hours was diluted double with physiological saline, and 1 ml of diluted antiserum was injected intraperitoneally into rats to be passively sensitized. On the next day, peritoneal exudation cell (hereinafter referred to as "PEC") was collected. The collected PEC was washed with a medium containing 0.1% BSA, and 1.5×10^5 of the PEC were added to each test tube. AFter incubation at 37° C. for 10 minutes, 50 μl of test compound solution in a same medium was added thereto. After 30 seconds, 50 μl of antigen solution (DVA-OVA 100 μg/ml) was further added thereto to give the total amount of 500 μl of the reaction mixture, and histamine release reaction was induced. After 10 minutes, 1 ml of physiological saline with cooled Tris buffered solution containing 1 mM EDTA were added thereto to stop the reaction. After centrifugation, the amount of histamine in supernatant was determined by fluorescence method according to the method of Shore et al [cf. J. Pharmacol. Exp. Ther., 127, 182 (1959)]. Inhibition rate against histamine release was calculated according to the following equation.
Inhibition rate against histamine release [formula] M: Amount of histamine in supernatant under addition of antigen and non-addition of test compound
S: Amount of histamine in supernatant under addition of antigen and test compound
B: Amount of histamine in supernatant under non-addition of antigen and test compound.
The test compound was used in a concentration of 10 μg/ml.

Acute toxicity in mouse = assay type: in vivo; conditions: 2 weeks observation
Procedure: The test was carried out with the compounds obtained in Examples 5 and 9. Groups of 5 male ddy mice weighing 26 to 28 g were employed. The test compounds were suspended in a 0.5% CMC aqueous solution and the resulting suspension was administered orally in an amount of 500 for the compound obtained in Example 9, 1000 or 2000 mg/kg body weight. The survivors were kept under observation daily for 2 weeks. From the results shown in Table 6, the LD50 of the compounds obtained in Example 5 and 9 were estimated to be more than 2000 mg/kg. The other compounds of the present invention also had the same toxicity as the above compounds.

[5] = 5 mg/kg p.o. (positive comparative drug)

| Compound | Swelling volume 4 hours after inflaming, mean ± standard error [1, 5] | Inhibition rate against swelling [1, 5] | inhibition in vivo at 5 mg/kg [2] | inhibition at 10 µM (5-lipoxygenase) | EC50 [3] | inhibition at 10 µg/mL [4] | Mortality (Acute toxicity in mouse; 1000 mg/kg p.o.) | Mortality (Acute toxicity in mouse; 2000 mg/kg p.o.) | LD50 at 336 h (Acute toxicity in mouse; mouse, in vivo, oral) | Swelling volume 4 hours after inflaming, mean ± standard error ([1]; 50 mg/kg p.o.) | Inhibition rate against swelling ([1]; 50 mg/kg p.o.) |
| --- | --- | --- | --- | --- | --- | --- | --- | --- | --- | --- | --- |
| COc1ccc2c(c1)c(CC(=O)O)c(C)n2C(=O)c1ccc(Cl)cc1 [Indomethacin, reference compound] | 0.47 ± 0.056 mL | 47.8% |  |  |  |  |  |  |  |  |  |
| CC(C)c1cccc2n(Cc3ccccc3)c(=O)c(-c3nnn[nH]3)c-2c1 [Example 4, 5-Iso-propyl-1-benzyl-3-(5-tetrazolyl)-1-azaazulane-2-one] |  |  | 78.2 ± 4.1% | -1.1% | 6.6 µg/mL (≈ 19.1 µM) | 84.4% |  |  |  |  |  |
| CC(C)c1cccc2c(-c3nnn[nH]3)c(=O)n(Cc3ccccc3)c-2c1 [Example 5, 7-Iso-propyl-1-benzyl-3-(5-tetrazolyl)-1-azaazulane-2-one] |  |  | 94.8 ± 5.1% | 1.5% | 1.2 µg/mL (≈ 3.47 µM) | 81.1% | 0/5 | 0/5 | > 2000 mg/kg |  |  |
| CC(C)c1cccc2c(-c3nnn[nH]3)c(=O)n(Cc3ccc(F)cc3)c-2c1 [Example 10, 1-(4-Fluorobenzyl)-7-iso-propyl-3-(5-tetrazolyl)-1-azaazulane-2-one] |  |  |  | 41.8% | 3.4 µg/mL (≈ 9.36 µM) | 99.8% |  |  |  | 0.58 mL and 0.58 ± 0.036 mL | 35.6% |
